Measured values published in patent US20220226342A1, “COMPOSITIONS AND METHODS OF TREATING LIVER CANCERS” (The Johns Hopkins University, priority 2019, published 2022).

Columns and labels:
[1] = tested on: 40 HCC PDO lines; assay: 10 μM drug screening, cell viability at 96 h (CellTiter-Glo); type: cell-based, human; conditions: one HCC PDO line, 96 h
Experimental: FIG. 2A-2E. 10 μM drug screening and IC50 calculation across 40 PDOs from 20 HCC patients. (2A). 10 μM drug screening of omacetaxine and sorafenib, regorafenib, lenvatinib and cabozantinib on 40 PDOs derived from 20 HCC patients. X axis—the 40 PDO lines, Y axis—Cell viability. (2B). IC50 curve of 40 PDO lines, x-axis—omacetaxine dose, Y axis—Relative cell viability. (2C). […] (2D). IC50 distribution of 40 HCC PDOs. X axis—PDO lines, Y axis—IC50 number of omacetaxine for each PDO.
As readout of drug effectiveness, cell viability at 96 hours (h) was measured. White light microscopy images of one of the HCC PDO lines across 129 drugs was prepared. In FIG. 2E, each panel represents the image collected at 96 hours after treatment with each drug, at a concentration of 10 μM. […] To quantify survival, we implemented CellTiter-Glo, a luminescent cell viability assay. A total of 129 readings (one for each drug) was obtained for each of the 40 PDO lines, for a total of […] data points. […] Next, the inventors contrasted the survival of the […] HCC PDO lines when treated with omacetaxine versus current FDA approved drugs for HCC.

[2] = tested on: HCC patients; conditions: clinical trial; cited from earlier work
[3] = tested on: HCC patients; conditions: cited from earlier work

Compound | white light microscopy image of organoids [1] | efficacy compared to sorafenib [2] | median increase in life span ([3]; HCC patients) [months] | median survival of HCC patients ([3]; SHARP trial, extended from 7.9) [months]
CC(C)C[C@H](NC(=O)[C@H](Cc1ccccc1)NC(=O)c1cnccn1)B(O)O [bortezomib] | induce cell destruction |  |  | 
COc1cc2nccc(Oc3ccc(NC(=O)NC4CC4)c(Cl)c3)c2cc1C(N)=O [lenvatinib] |  | non-inferior efficacy |  | 
CNC(=O)c1cc(Oc2ccc(NC(=O)Nc3ccc(Cl)c(C(F)(F)F)c3)cc2)ccn1 [sorafenib] | allow unrestricted organoid growth |  | 9.2 | 10.7
